Results published in patent US20100184771A1, “Bicyclic Heterocyclic Compound” (ONO PHARMACEUTICAL CO., LTD., priority 2005, published 2010).

Experiments:
swim-stressed SD rat = assay: Elevated plus maze test with swim-stressed rat; type: in vivo; details: orally, 1 hour before the test
Experimental: 2 open arms with the same lengths (50×10 cm) and 2 close arms (a 30 cm wall was provided) with the same lengths (50×10 cm) were arranged in orthogonal manner at a height of 50 cm from the floor to provide an elevated crossroad maze system. In 70 cm above the both open arms, white light was provided, whereby illuminance was maintained at constant.
A 7-week-old SD rat (CHARLES RIVER LABORATORIES JAPAN) was forcedly made to swim for 120 seconds in a pool (40×30×38 cm) at 22° C. of water temperature and 25 cm of water depth. After 9 minutes of soaking stress loading, the rat was put on the center of the system. The activity for 5 minutes of the rat was analyzed with an automatic activity-tracking analysis system (EthoVision Version 3.0, Noldus Information Technology) to calculate the dwell time (second) on the open arm.
Note that no soaking stress was loaded on the control group. In addition, 20% Solutol/HS15 (5 mL/Kg) was orally administered to the vehicle group and test drugs in various concentrations were orally administrated to the test drug administration group 1 hour before the test.

human CRF receptor I [1] = target: T1, human CRF receptor I (Homo sapiens, UniProt P34998); assay: Receptor antagonistic activity (cyclic AMP assay); type: cell-based; details: human/rat CRF stimulation, 37° C., 15 minutes; read-out: IC50 value, antagonistic activity against CRF (accumulated cyclic AMP)
T1 construct: expressed in transfected cells; host or cells: CHO-K1
T1 sequence (P34998 24-415): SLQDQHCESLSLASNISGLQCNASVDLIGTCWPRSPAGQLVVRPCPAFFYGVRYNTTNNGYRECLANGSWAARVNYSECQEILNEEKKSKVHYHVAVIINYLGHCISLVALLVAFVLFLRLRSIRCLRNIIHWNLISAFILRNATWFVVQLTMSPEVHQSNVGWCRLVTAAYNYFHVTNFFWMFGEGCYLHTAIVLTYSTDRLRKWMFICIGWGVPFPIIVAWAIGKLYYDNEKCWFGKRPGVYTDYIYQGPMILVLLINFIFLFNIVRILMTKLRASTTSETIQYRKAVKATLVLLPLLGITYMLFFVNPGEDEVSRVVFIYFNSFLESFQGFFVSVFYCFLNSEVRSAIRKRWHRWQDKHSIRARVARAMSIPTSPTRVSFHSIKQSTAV
Experimental: The forced expression cell strain of the human CRF receptor I was cultured at 37° C. under 5% carbon dioxide and 95% air by using a Ham's F-12 medium (F-12 nutrient mixture) containing 10% bovine fetal serum and 1% antibiotic substance-antifungal agent. On the previous day before the cyclic AMP was measured, the cells were inoculated into a 96-well plate in an amount of 1×10^4 cell/well. On the measurement day, the cells were washed twice with a Ham's F-12 medium, whereby a solution of Ham's F-12 medium/1 mM 3-isobutyl-1-methylxanthine (assay medium) (178 μL) was added to each well. After the incubation at 37° C. for 10 minutes, test drug solutions (2 μL) in various concentrations were added thereto, or DMSO (2 μL) was added to a CRF group and a blank group. An assay medium (20 μL) containing 10 nM human/rat CRF was added to wells of a compound group and the CRF group. An assay medium (20 μL) containing 0.00001% acetic acid was added to the blank group. Each group was further incubated at 37° C. for 15 minutes. […] The accumulated cyclic AMP amounts were calculated by subtracting mean values of corresponding 2 wells in the blank group from that of 2 wells. The IC50 values were calculated with non-linear regression analysis by defining logarithm concentration of the compound as independent variable and an accumulated cyclic AMP amount as dependent variable.

human CRF receptor I [2] = target: T1, human CRF receptor I; assay: Binding assay (125I-CRF, membrane fraction of CHO-K1 cells with forced expression of the receptor); details: 125I-CRF 0.25 nM, room temperature, 2 hours
Experimental: The forced-expression cell strain of the human CRF receptor I (parent strain is CHO-K1 cell) was cultured until the cell was confluent and collected with a scraper. The collected cells were washed twice with PBS, and were suspended with an ice-colded binding assay buffer (Tris-HCl (50 mM, pH 7.0), EDTA (2 mM, pH 8.0), and MgCl2 (10 mM)). After fractured with a dounce-type homogenizer, the suspended cells were centrifuged at 10,000 g, and a membrane fraction was collected. The collected membrane fraction was resuspended with a little amount of the binding assay buffer, thereafter diluted with the binding assay buffer so as to have a concentration of 1 mg/mL. The obtained membrane fraction was used for a binding assay.
^125I-CRF was diluted with the binding assay buffer so as to have a concentration of 0.5 nM, whereby 50 μL of the diluted ^125I-CRF was added to a siliconized 1.5-mL tube. Next, test drugs diluted at appropriate times, such as DMSO (for general binding) or 100 μM of CRF (for non-specific binding), was added to a […]. Finally, 50 μL of the membrane fraction was added thereto and the reaction was started (final concentration of ^125I-CRF was 0.25 nM). The tube was incubated at room temperature for 2 hours. […] A membrane binding count was measured using a γ counter. The specific binding count was obtained by subtracting the non-specific count from the measured count.

IC50 (human CRF receptor I [1]): 4.9 nM
IC50 (human CRF receptor I [2]): 16.4 nM
Structure (SMILES): CCC(CC)c1cc(C)n2nc(-c3ccc(OC)cc3C)c(C)cc12 [Example 8, 5-(1-ethylpropyl)-2-(4-methoxy-2-methylphenyl)-3,7-dimethylpyrrolo[1,2-b]pyridazine]
dwell time on the open arm compared to that of the vehicle group (swim-stressed SD rat; 10 mg/kg): favorably elongated the dwell time on the open arm
dwell time on the open arm compared to that of the vehicle group (swim-stressed SD rat): favorably elongated the dwell time on the open arm
